The record followed here is patent US20200165257A1, “INHIBITORS OF PHOSPHOINOSITIDE 3-KINASE AND HISTONE DEACETYLASE FOR TREATMENT OF CANCER” (THE UNITED STATES OF AMERICA, AS REPRESENTED BY THE …, priority 2017, published 2020).

SMILES strings stand for the structures. Like-named read-outs stand apart in the source and are kept apart here.

The test system of assay [1] is Ovarian Cell Line NCI/ADR-RES. The experiment in a line: cells. It counts as cell-based. The following applies: Homo sapiens, read-out: inhibition of proliferation.
Assay [2] relates to Ovarian Cell Line OVCAR-8. The assay can be described thus: cells. It counts as cell-based. The following applies: Homo sapiens.
In assay [3] the test system is Leukemia Cell Line RPMI-8226. It counts as cell-based. The following applies: Homo sapiens.
Assay [4] deals with Breast Cancer Cell Line BT-549. The assay can be described thus: cells. It counts as cell-based. The settings on record: Homo sapiens.
Assay [5] concerns Ovarian Cell Line OVCAR-3. The experiment in a line: cells. The settings on record: Homo sapiens, OVCAR-3, read-out: inhibition of proliferation.
The test system of assay [6] is Breast Cancer Cell Line HS 578T. It counts as cell-based. The settings on record: Homo sapiens, read-out: inhibition of proliferation.
Assay [7] deals with Leukemia Cell Line HL-60(TB). It counts as cell-based. The settings on record: Homo sapiens.
The next assay relates to Leukemia Cell Line K-562. It counts as cell-based. The settings on record: Homo sapiens.
For assay [8], the system named is Breast Cancer Cell Line MDA-MB-468. The experiment in a line: cells. The settings on record: Homo sapiens, MDA-MB-468, read-out: inhibition of proliferation.
For a further assay, the system named is Leukemia Cell Line SR. The assay can be described thus: cells. It counts as cell-based. The following applies: Homo sapiens, read-out: inhibition of proliferation.
Assay [9] deals with Melanoma Cell Line UACC-62. The assay can be described thus: cells. It counts as cell-based. The settings on record: Homo sapiens.
For assay [10], the system named is Leukemia Cell Line CCRF-CEM. The experiment in a line: cells. It counts as cell-based. The settings on record: Homo sapiens, read-out: inhibition of proliferation.
A further assay has as its target T1, HDAC6 (Homo sapiens, UniProt Q9UBN7).
T1 sequence (Q9UBN7 1-1215): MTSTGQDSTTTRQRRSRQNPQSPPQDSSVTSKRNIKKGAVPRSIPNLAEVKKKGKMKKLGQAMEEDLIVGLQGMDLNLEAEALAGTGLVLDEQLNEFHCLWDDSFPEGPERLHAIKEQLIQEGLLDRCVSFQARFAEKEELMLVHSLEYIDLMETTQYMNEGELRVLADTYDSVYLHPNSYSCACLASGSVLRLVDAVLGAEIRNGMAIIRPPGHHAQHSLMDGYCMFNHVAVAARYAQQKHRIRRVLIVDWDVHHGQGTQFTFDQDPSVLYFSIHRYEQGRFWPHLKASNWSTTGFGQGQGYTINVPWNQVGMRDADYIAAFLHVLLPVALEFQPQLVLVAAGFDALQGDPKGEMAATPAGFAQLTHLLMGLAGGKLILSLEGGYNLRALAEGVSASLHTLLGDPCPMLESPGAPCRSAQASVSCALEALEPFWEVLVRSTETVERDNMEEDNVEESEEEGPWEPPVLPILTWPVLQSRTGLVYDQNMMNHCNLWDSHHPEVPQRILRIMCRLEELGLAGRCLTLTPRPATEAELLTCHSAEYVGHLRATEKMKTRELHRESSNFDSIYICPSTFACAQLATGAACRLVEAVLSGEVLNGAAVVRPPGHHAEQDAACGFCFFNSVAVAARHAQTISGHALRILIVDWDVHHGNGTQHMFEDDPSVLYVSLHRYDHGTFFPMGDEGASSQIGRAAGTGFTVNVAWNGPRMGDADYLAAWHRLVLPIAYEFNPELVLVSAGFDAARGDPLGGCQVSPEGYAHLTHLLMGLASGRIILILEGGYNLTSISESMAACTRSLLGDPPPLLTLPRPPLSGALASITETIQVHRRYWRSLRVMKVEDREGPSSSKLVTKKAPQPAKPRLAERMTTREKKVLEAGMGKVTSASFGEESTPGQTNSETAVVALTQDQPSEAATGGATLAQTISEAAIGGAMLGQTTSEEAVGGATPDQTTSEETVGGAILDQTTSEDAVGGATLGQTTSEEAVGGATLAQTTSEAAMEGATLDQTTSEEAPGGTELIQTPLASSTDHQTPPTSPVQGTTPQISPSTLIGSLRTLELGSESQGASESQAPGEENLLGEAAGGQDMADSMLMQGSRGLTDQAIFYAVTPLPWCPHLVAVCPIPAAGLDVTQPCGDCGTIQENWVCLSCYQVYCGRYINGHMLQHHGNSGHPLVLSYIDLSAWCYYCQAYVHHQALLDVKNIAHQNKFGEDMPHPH
The experiment in a line: HDAC Fluorescent Activity Assay. It counts as biochemical. The following applies: symbols ++ / +; read-out: HDAC6 Inhibition Activity (IC50 class). The method, then:
This protocol is to determine the IC50s or percentage of inhibition values of the test compound against HDACs.
The HDAC Fluorescent Activity Assay is based on the unique Fluorogenic Substrate and Developer combination. […] First, the Fluorogenic Substrate, which comprises an acetylated lysine side chain, is incubated with a purified HDAC enzyme. Deacetylation of the substrate sensitizes the substrate so that, in the second step, treatment with the Developer produces a fluorophore.
Testing compounds were dissolved in 100% DMSO to specific concentration. […]
1. Deliver 2× enzyme in wells of reaction plate except No Enzyme control wells. Add buffer in No En wells.
2. Deliver compounds in 100% DMSO into the enzyme mixture by Acoustic technology (Echo550; nanoliter range). Spin down and pre-incubation.
3. Deliver 2× Substrate Mixture (Fluorogenic HDAC Substrate and co-factor if applicable) in all reaction wells to initiate the reaction. Spin and shake.
4. Incubate for 1-2 hr at 30° C. with seal.
5. Add Developer with Trichostatin A (or TMP269) to stop the reaction and to generate fluorescent color.
6. Fluorescence was read (excitatory, 360; emission, 460) using the EnVision Multilabel
7. Take endpoint reading for analysis after the development reaches plateau.
The percentages of enzyme activity (relative to DMSO controls) and IC50 values were calculated using the GraphPad Prism 4 program based on a sigmoidal dose-response equation.

The next assay concerns Ovarian Cell Line IGROV1. It counts as cell-based. The settings on record: Homo sapiens.
Assay [11] relates to Leukemia Cell Line MOLT-4. It counts as cell-based. The settings on record: Homo sapiens.
[12] abbreviates: single dose, 10 uM compound concentration.
[13] abbreviates: RPMI-8226, read-out: inhibition of proliferation.
Where [14] appears, read: BT-549, read-out: inhibition of proliferation.
[15] abbreviates: HL-60, read-out: inhibition of proliferation.
Where [16] appears, read: UACC-62, read-out: inhibition of proliferation.
Where [17] appears, read: IGROV-1, read-out: inhibition of proliferation.
Setting [18] is: MOLT-4, read-out: inhibition of proliferation.

As a reminder, the IC50 is the concentration that gives 50% inhibition. With `Cc1nc2cccc(NCc3ccc(C(=O)NO)cc3)c2c(=O)n1-c1ccccc1` [Compound LX, N-hydroxy-4-(((2-methyl-4-oxo-3-phenyl-3,4-dihydroquinazolin-5-yl)amino)methyl)benzamide], the inhibition at 10 µM was more than 50% in [1] (setting [12]); more than 50% in assay [2] (OVCAR-8, single dose, 10 uM compound concentration, read-out: inhibition of proliferation); more than 50% in [3] (RPMI-8226, single dose, 10 uM compound concentration, read-out: inhibition of proliferation); 25 to 50% in assay [4] (BT-549, single dose, 10 uM compound concentration, read-out: inhibition of proliferation); more than 50% in [5]; 25 to 50% in assay [6] (HS 578T, single dose, 10 uM compound concentration). The inhibition at 10 µM is more than 50% in assay [7] (HL-60(TB), single dose, 10 uM compound concentration, read-out: inhibition of proliferation); more than 50% in the assay with Leukemia Cell Line K-562 (K562, K-562, single dose, 10 uM compound concentration, read-out: inhibition of proliferation); more than 50% in [8]; more than 50% in the assay with Leukemia Cell Line SR (SR, single dose, 10 uM compound concentration); more than 50% in [9] (UACC-62, single dose, 10 uM compound concentration, read-out: inhibition of proliferation); more than 50% in assay [10] (setting [12]). Besides, the inhibition at 10 µM in the assay with Ovarian Cell Line IGROV1 (IGROV-1, IGROV1, single dose, 10 uM compound concentration, read-out: inhibition of proliferation) is more than 50%; in [11] (MOLT-4, single dose, 10 uM compound concentration, read-out: inhibition of proliferation), more than 50%. In addition, the IC50 at HDAC6 was less than 0.1 µM.

Take `CC[C@H](Nc1nc(N)nc(C)c1C#N)c1nc2cccc(NCc3ccc(C(=O)NO)cc3)c2c(=O)n1-c1ccccc1` [Compound XL, (S)-4-(((2-(1-((2-amino-5-cyano-6-methylpyrimidin-4-yl)amino)propyl)-4-oxo-3-phenyl-3,4-dihydroquinazolin-5-yl)amino)methyl)-N-hydroxybenzamide]: the inhibition at 10 µM is 25 to 50% in assay [1]; more than 50% in assay [2] (OVCAR-8, read-out: inhibition of proliferation); more than 50% in assay [3] (setting [13]); more than 50% in assay [4] (setting [14]); more than 50% in assay [5]; more than 50% in assay [6] (Hs-578T). The inhibition at 10 µM (in assay [7] (setting [15]); in [8]; in assay [9] (setting [16]); in assay [10]; in the assay on Ovarian Cell Line IGROV1 (setting [17]); in assay [11] (setting [18])) was more than 50% throughout.

Take `CC[C@H](Nc1ncnc2[nH]cnc12)c1nc2cccc(NCc3ccc(C(=O)NO)nc3)c2c(=O)n1-c1ccccc1` [V, (S)-5-(((2-(1-((9H-purin-6-yl)amino)propyl)-4-oxo-3-phenyl-3,4-dihydroquinazolin-5-yl)amino)methyl)-N-hydroxypicolinamide]: the inhibition at 10 µM is 25 to 50% in [1]; more than 50% in assay [3] (setting [13]); more than 50% in assay [4] (setting [14]); more than 50% in assay [6] (Hs-578T); more than 50% in assay [7] (setting [15]); more than 50% with Leukemia Cell Line K-562 (K562, read-out: inhibition of proliferation). For the same molecule, the inhibition at 10 µM in the assay with Leukemia Cell Line SR is more than 50%; in assay [9] (setting [16]) it was more than 50%; in assay [10], more than 50%; with Ovarian Cell Line IGROV1 (setting [17]) it was 25 to 50%; in assay [11] (setting [18]) it was more than 50%.
